Experimental data as given in patent publication US4000283A, “Compound 3,4,5-trimethoxyphenyl-(3,4-dimethyl-2-pyridyl)-carbonyl” (priority 1974, dated 1976).

Assays:
[1] = Acute toxicity in mice (i.p., Litchfield and Wilcoxon); type: in vivo, albino I.C.R. Swiss mice; details: mouse, in vivo, ip, albino I.C.R. Swiss mice, both sexes
Procedure: (§1) The acute toxicity studies were carried out in albino I.C.R. Swiss mice weighing 30 ± 2 g, of both sexes. The products were administered intraperitoneally (i.p). The acute toxicity was calculated according to the method of Litchfield and Wilcoxon.

[2] = test system: acetic acid-induced writhing; assay: Analgesia, acetic acid-induced writhing technique in mice; type: in vivo, albino I.C.R. Swiss mice; details: for No. of writhes (x ± M.S.E.): Table B-I, control 112.1 ± 4.2; for No. of writhes (x ± M.S.E.) / Number of writhes (x ± M.S.E.): 30 min before acetic acid, counted during 20 min; for Number of writhes (x ± M.S.E.): Table B-II, control 99.6 ± 5.6; for analgesic activity: mice, i.p., compared with dextropropoxyphene
Procedure: The analgesic action was investigated in albino I.C.R. Swiss mice, using the acetic acid-induced writhing technique. Groups each of 10 mice were assembled.
The analgesics were injected intraperitoneally (i.p), and after 30 minutes 0.25 ml of a 1% solution of acetic acid was injected i.p. A control group received acetic acid only. The number of writhes made by each mouse was counted during the 20 minutes following the administration of acetic acid.

albino I.C.R. Swiss mice = assay: Acute toxicity in mice (i.p., Litchfield and Wilcoxon); type: in vivo; details: mice
Procedure: as §1

[3] = dextropropoxyphene, 25 mg/kg i.p.

Structure (SMILES): CCC(=O)O[C@](Cc1ccccc1)(c1ccccc1)[C@H](C)CN(C)C [Dextropropoxyphene, reference compound]
- LD50 [1]: 140 mg/kg
- No. of writhes (x ± M.S.E.) [2, 3]: 22.8 ± 4.74 writhes
- Number of writhes (x ± M.S.E.) [2, 3]: 50.2 ± 4.4 writhes

Structure (SMILES): COc1cc(CC2C(C)=C(C)CCN2C)cc(OC)c1OC (centres unmarked) [Product I, 1,3,4-trimethyl-2-(3,4,5-trimethoxybenzyl)-1,2,5,6-tetrahydropyridine]
- LD50 [1]: 154 mg/kg
- Acute toxicity compared with dextropropoxyphene (albino I.C.R. Swiss mice): less toxic than dextropropoxyphene
- No. of writhes (x ± M.S.E.) ([2]; Product I, 20 mg/kg i.p.): 74.5 ± 4.84 writhes
- analgesic activity [2]: has analgesic activity but less than that of dextropropoxyphene

Structure (SMILES): COc1cc(C(O)c2nccc(C)c2C)cc(OC)c1OC (centres unmarked) [Product II, 3,4,5-trimethoxyphenyl-(3,4-dimethyl-2-pyridyl)carbinol]
- LD50 [1]: 292 mg/kg
- Acute toxicity compared with dextropropoxyphene (albino I.C.R. Swiss mice): less toxic than dextropropoxyphene
- Number of writhes (x ± M.S.E.) ([2]; Product II, 40 mg/kg i.p.): 29 ± 7.3 writhes
- analgesic activity [2]: high analgesic activity
